The source of these data is patent publication US20240270715A1, “INHIBITORS OF TRANSGLUTAMINASES” (ZEDIRA GMBH, priority 2021, published 2024).

Where only a bound is given, the exact number is not on record here.

Data set [1] can be described thus: Caco-2 permeability assay (CacoReady kit). Type of data set: in vitro ADME. As to conditions: human. A digest of the protocol:
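Apparent permeability coefficients (Papp) were measured across Caco-2 cell barriers using a ready-to-use kit run per the supplier's protocol. Values serve as a predictor of oral/intestinal bioavailability.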
(Caco-2 cells form a polarised layer with tight junctions and transporters.)

The target in data set [2] is T1, recombinant human transglutaminase 2 (Homo sapiens, UniProt P21980).
T1 sequence (P21980 1-687): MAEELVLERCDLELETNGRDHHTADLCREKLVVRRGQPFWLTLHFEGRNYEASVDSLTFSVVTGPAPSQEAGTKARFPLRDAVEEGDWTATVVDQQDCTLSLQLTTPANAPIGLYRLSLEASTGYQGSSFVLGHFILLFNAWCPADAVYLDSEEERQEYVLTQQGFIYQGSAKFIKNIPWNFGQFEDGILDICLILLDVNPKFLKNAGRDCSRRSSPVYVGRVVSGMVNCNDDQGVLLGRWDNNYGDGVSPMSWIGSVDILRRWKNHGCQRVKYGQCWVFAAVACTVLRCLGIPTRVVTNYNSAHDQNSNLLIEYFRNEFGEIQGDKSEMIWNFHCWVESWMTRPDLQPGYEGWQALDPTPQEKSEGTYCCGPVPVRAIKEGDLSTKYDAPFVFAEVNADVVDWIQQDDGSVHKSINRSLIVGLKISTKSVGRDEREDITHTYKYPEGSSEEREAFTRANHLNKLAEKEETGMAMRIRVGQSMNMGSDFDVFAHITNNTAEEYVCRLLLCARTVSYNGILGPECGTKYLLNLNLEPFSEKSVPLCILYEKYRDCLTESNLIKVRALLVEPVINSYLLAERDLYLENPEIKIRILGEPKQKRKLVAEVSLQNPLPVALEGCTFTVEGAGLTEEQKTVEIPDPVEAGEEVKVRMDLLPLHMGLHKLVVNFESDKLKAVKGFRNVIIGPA
The data set can be described thus: Transglutaminase assay: incorporation of dansylcadaverine into dimethylcasein (DCC-assay). The format is biochemical. As to conditions: recombinant human TG2 10 nM, dansylcadaverine/dimethylcasein; read-out: IC50 TG2. A digest of the protocol:
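Recombinant human TG2 (10 nM final) incorporates dansylcadaverine (16.7 μM) into N,N-dimethylcasein (4 μM) in Tris-HCl buffer, pH 8.0, with 10 mM CaCl2 and 10 mM glutathione. Fluorescence (λex 330, λem 500 nm) followed 30 min. The slope between 20–30 min gives activity versus DMSO control, and IC50 comes from the concentration–activity plot.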

Data set [3] can be described thus: Log D by shake flask method (octanol / PBS pH 7.4, HPLC). Type of data set: physicochemical. As to conditions: octanol / PBS pH 7.4, shake flask; read-out: logD. A digest of the protocol:
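Shake-flask partitioning of compound between octanol and PBS at pH 7.4, with phase concentrations quantified by HPLC. The value reported is Log D.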

`CCNC(=O)C(=O)CC[C@H](NC(=O)c1cccnn1)C(=O)Nc1cccn(CC(=O)N[C@@H]2C[C@@H]3C=C[C@H]2C3)c1=O` [Compound I-73, (S)-N1-(1-(2-((1R,2R,4R)-bicyclo[2.2.1]hept-5-en-2-ylamino)-2-oxoethyl)-2-oxo-1,2-dihydropyridin-3-yl)-N6-ethyl-5-oxo-2-(pyridazine-3-carboxamido)hexanediamide]: the Papp in data set [1] is less than 1 ×10⁻⁶ cm/s. In data set [2], the IC50 was in the range of 0.15 to 0.6 µM. Moreover, the logD in data set [3] is less than 1.

In data set [1], `CCNC(=O)C(=O)CC[C@H](NC(=O)c1cn[nH]n1)C(=O)Nc1cccn(CC(=O)NC2CC3CCC2CC3)c1=O` (stereo partly drawn) [Compound I-74, (2S)-N1-(1-(2-(bicyclo[2.2.2]octan-2-ylamino)-2-oxoethyl)-2-oxo-1,2-dihydropyridin-3-yl)-N6-ethyl-5-oxo-2-(2H-1,2,3-triazole-4-carboxamido)hexanediamide] had a Papp of less than 1 ×10⁻⁶ cm/s. For the same compound, in data set [2], the IC50 was in the range of 0.15 to 0.6 µM. Also, the logD in data set [3] was less than 1.

For the compound `CCNC(=O)C(=O)CC[C@H](NC(=O)c1cn(C)nn1)C(=O)Nc1cccn(CC(=O)N[C@@H]2C[C@H]3CC[C@]2(C)C3(C)C)c1=O` [Compound I-75, (S)-N1-ethyl-5-(1-methyl-1H-1,2,3-triazole-4-carboxamido)-2-oxo-N6-(2-oxo-1-(2-oxo-2-((1R,2R,4R)-1,7,7-trimethylbicyclo[2.2.1]heptan-2-ylamino)ethyl)-1,2-dihydropyridin-3-yl)hexanediamide], the Papp in data set [1] lay within 1 to 10 ×10⁻⁶ cm/s. Further, the concentration for half-maximal inhibition (IC50) in data set [2] is 0.15 to 0.6 µM. Also, the logD in data set [3] was less than 1.

As for `CCNC(=O)C(=O)CC[C@H](NC(=O)c1ncn(C)n1)C(=O)Nc1cccn(CC(=O)N[C@@H]2C[C@@H]3C[C@H]([C@H]2C)C3(C)C)c1=O` [Compound I-76, (S)-N1-ethyl-5-(1-methyl-1H-1,2,4-triazole-3-carboxamido)-2-oxo-N6-(2-oxo-1-(2-oxo-2-((1R,2R,3R,5S)-2,6,6-trimethylbicyclo[3.1.1]heptan-3-ylamino)ethyl)-1,2-dihydropyridin-3-yl)hexanediamide], in data set [1], the Papp was less than 1 ×10⁻⁶ cm/s. Moreover, the IC50 in data set [2] is 0.15 to 0.6 µM. The logD in data set [3] is 1 to 3.

As to `CCNC(=O)C(=O)CC[C@H](NC(=O)c1coc2ccccc12)C(=O)Nc1cccn(CC(=O)N[C@H]2C[C@H]3C[C@@H]([C@@H]2C)C3(C)C)c1=O` [Compound I-77, (S)-2-(benzofuran-3-carboxamido)-N6-ethyl-5-oxo-N1-(2-oxo-1-(2-oxo-2-((1S,2S,3S,5R)-2,6,6-trimethylbicyclo[3.1.1]heptan-3-ylamino)ethyl)-1,2-dihydropyridin-3-yl)hexanediamide], the Papp in data set [1] was in the range of 1 to 10 ×10⁻⁶ cm/s. Also, the IC50 in data set [2] fell in the range of 0.15 to 0.6 µM. In data set [3], the logD fell in the range of 3 to 5.

As to `CCNC(=O)C(=O)CC[C@H](NC(=O)c1csc2ccccc12)C(=O)Nc1cccn(CC(=O)NC23CCCC4CC(CCC42)C3)c1=O` (stereo partly drawn) [Compound I-78, (S)-2-(benzo[b]thiophene-3-carboxamido)-N6-ethyl-N1-(1-(2-(4-homoisotwistane-3-amino)-2-oxoethyl)-2-oxo-1,2-dihydropyridin-3-yl)-5-oxohexanediamide], the Papp in data set [1] fell in the range of 1 to 10 ×10⁻⁶ cm/s. Moreover, the IC50 in data set [2] is 0.15 to 0.6 µM. The pH-dependent lipophilicity (logD) in data set [3] is 3 to 5.

Compound `CCNC(=O)C(=O)CC[C@H](NC(=O)c1cnn(C)c1)C(=O)Nc1cccn(CC(=O)NC23CC4CC5C2C[C@@H]2C[C@H]5C(C4)[C@H]3C2)c1=O` [Compound I-79, (S)-N1-ethyl-N6-(1-(2-(diamantane-1-amino)-2-oxoethyl)-2-oxo-1,2-dihydropyridin-3-yl)-5-(1-methyl-1H-pyrazole-4-carboxamido)-2-oxohexanediamide] returned a Papp in data set [1] of less than 1 ×10⁻⁶ cm/s. The IC50 in data set [2] lay in the range of 0.15 to 0.6 µM. The pH-dependent lipophilicity (logD) in data set [3] fell in the range of 1 to 3.

`CCNC(=O)C(=O)CC[C@H](NC(=O)c1ccnn1C)C(=O)Nc1cccn(CC23CC4CC(CC(C4)C2)C3)c1=O` [Compound I-81, (S)-N1-(1-(1-adamantylmethyl)-2-oxo-1,2-dihydropyridin-3-yl)-N6-ethyl-2-(1-methyl-1H-pyrazole-5-carboxamido)-5-oxohexanediamide] had a Papp in data set [1] of less than 1 ×10⁻⁶ cm/s. Further, the IC50 in data set [2] fell in the range of 0.15 to 0.6 µM. In addition, the logD in data set [3] fell in the range of 1 to 3.

In the case of `CCNC(=O)C(=O)CC[C@H](NC(=O)c1snnc1C1CC1)C(=O)Nc1cccn(CC23CC4CC(CC(O)(C4)C2)C3)c1=O` [Compound I-82, (S)-N1-(1-((3-hydroxy-1-adamantyl)methyl)-2-oxo-1,2-dihydropyridin-3-yl)-2-(4-cyclopropyl-1,2,3-thiadiazole-5-carboxamido)-N6-ethyl-5-oxohexanediamide], the Papp in data set [1] is less than 1 ×10⁻⁶ cm/s. In addition, in data set [2], the IC50 is 0.15 to 0.6 µM. Also, the logD in data set [3] is less than 1.

The compound `CCNC(=O)C(=O)CC[C@H](NC(=O)c1cnsn1)C(=O)Nc1cccn(CC23CC4CC(CC(Br)(C4)C2)C3)c1=O` [Compound I-83, (S)-N1-(1-((3-bromo-1-adamantyl)methyl)-2-oxo-1,2-dihydropyridin-3-yl)-N6-ethyl-5-oxo-2-(1,2,5-thiadiazole-3-carboxamido)hexanediamide] gave a Papp in data set [1] of less than 1 ×10⁻⁶ cm/s. For the same compound, in data set [2], the IC50 was in the range of 0.15 to 0.6 µM. Also, the logD in data set [3] was 3 to 5.

`CCNC(=O)C(=O)CC[C@H](NC(=O)c1snnc1CO)C(=O)Nc1cccn(CC2C3CC4CC(C3)CC2C4)c1=O` (stereo partly drawn) [Compound I-84, (S)-N1-(1-(2-adamantylmethyl)-2-oxo-1,2-dihydropyridin-3-yl)-N6-ethyl-2-(4-(hydroxymethyl)-1,2,3-thiadiazole-5-carboxamido)-5-oxohexanediamide]: the Papp in data set [1] is less than 1 ×10⁻⁶ cm/s. In data set [2], the IC50 is 0.15 to 0.6 µM. The logD in data set [3] lay within 1 to 3.

In the case of `CCNC(=O)C(=O)CC[C@H](NC(=O)c1c[nH]cc1C(C)(C)C)C(=O)Nc1cccn(CCC23CC4CC(CC(C4)C2)C3)c1=O` [Compound I-85], the Papp in data set [1] was in the range of 1 to 10 ×10⁻⁶ cm/s. Also, in data set [2], the IC50 fell in the range of 0.6 to 3.5 µM. For the same compound, the logD in data set [3] fell in the range of 3 to 5.

For `CCNC(=O)C(=O)CC[C@H](NC(=O)c1cc(C#N)cn1C)C(=O)Nc1cccn(CCCC23CC4CC(CC(C4)C2)C3)c1=O` [Compound I-86], the Papp in data set [1] was in the range of 1 to 10 ×10⁻⁶ cm/s. Further, in data set [2], the IC50 lay in the range of 0.6 to 3.5 µM. The logD in data set [3] is 3 to 5.

In data set [1], `CCNC(=O)C(=O)CC[C@H](NC(=O)c1oc2ccccc2c1C)C(=O)Nc1cccn(CC(=O)NC23CC(C2)C3)c1=O` [Compound I-88, (S)-N1-(1-(2-(bicyclo[1.1.1]pentan-1-ylamino)-2-oxoethyl)-2-oxo-1,2-dihydropyridin-3-yl)-N6-ethyl-2-(3-methylbenzofuran-2-carboxamido)-5-oxohexanediamide] came in with a Papp of 1 to 10 ×10⁻⁶ cm/s. Moreover, the IC50 in data set [2] was less than 0.15 µM. For the same compound, the logD in data set [3] is less than 1.

In data set [1], `CCNC(=O)C(=O)CC[C@H](NC(=O)c1coc(C(C)=O)n1)C(=O)Nc1cccn(CC(=O)NC23CC(C2)C3)c1=O` [Compound I-89, (S)-2-(2-acetyloxazole-4-carboxamido)-N1-(1-(2-(bicyclo[1.1.1]pentan-1-ylamino)-2-oxoethyl)-2-oxo-1,2-dihydropyridin-3-yl)-N6-ethyl-5-oxohexanediamide] had a Papp of less than 1 ×10⁻⁶ cm/s. Besides, the IC50 in data set [2] was less than 0.15 µM. Further, the logD in data set [3] is less than 1.

The Papp is the rate of passage across a membrane or cell layer, normalised by area and donor concentration. A high value points to ready permeation. Broadly, the IC50 is the point on the concentration scale where inhibition reaches its midpoint. As usually defined, the logD is lipophilicity at a set pH, counting ionised and neutral species.
